The subject of assay [1] is Staphylococcus aureus ATCC 6538. Put plainly: Quantitative evaluation of antibacterial activity of bank note samples, modified AATCC 100-1993. The following applies: 625 ppm agent in acrylate coating. The method, then:
(§1) For the testing, a protocol was selected which measured the percent kill in a bacterial population over a period of time when put in contact with banknote samples.
(§2) Tests were conducted against two common bacteria: the gram-positive Staphylococcus aureus, which is found almost everywhere in and on the body, and which can cause numerous infections; as well as the gram-negative Escherichia coli, which is a common “bathroom bacteria” that can cause severe food poisoning. With good results against these organisms, efficacy against a broad spectrum of other bacteria can be predicted.
(§3) Ten samples marked Secu-GB1-A-260503, Secu-GB2-A-260503, Secu-GB3-A-260503, Secu-GB4-A-260503, Secu-GB5-A-260503, Secu-C-A-260503, Secu-C-B-260503, Secu-C-C-260503, Secu-C-D-260503 and Secu-C-E-260503 were manufactured employing 2,4,4′-trichloro-2′-hydroxydiphenyl ether in the acrylate composition applied as a coating layer on the planar material.
(§4) Samples from the bank note prototypes were evaluated for their antibacterial activity in accordance with the modified method AATCC 100-1993. The tests were performed against the organisms Staphylococcus aureus ATCC 6538 and Escherichia coli ATCC 8739.

The test system of assay [2] is Escherichia coli ATCC 8739. The assay is described as above. The following applies: 625 ppm agent in acrylate coating. The protocol:
as §1, §2, §3, §4

Consider one molecule from patent US20110200656A1, “ANTIMICROBIAL CURRENCY, MATERIAL AND METHOD” (MICROBAN PRODUCTS COMPANY, priority 2007, published 2011).

As for `Oc1cc(Cl)ccc1Oc1ccc(Cl)cc1Cl` [2,4,4′-trichloro-2′-hydroxydiphenyl ether], the “log reductions (in words)” value in assay [1] and in assay [2] was “strong log reductions” throughout.
